From PubChem BioAssay (NCI)
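Assay format: 96-well plates, 48-hour exposure. TGI denotes the concentration required for complete inhibition of growth.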 Where a SMILES comes first, the peptide text is derived from it. The star is where a group is joined. Boc = CC(C)(C)OC(=O)*

Tests used:
Test in all cases: DTP human tumour cell line panel, 48 h
[1] = test system: SW-620 colon
[2] = test system: SR leukemia
[3] = test system: OVCAR-5 ovarian
[4] = test system: PC-3 prostate
[5] = test system: OVCAR-8 ovarian
[6] = test system: SF-295 CNS
[7] = test system: HOP-92 NSCLC
[8] = test system: UACC-62 melanoma

Structure (SMILES): C[n+]1c(-c2ccc(/C=N/NC(=N)N/N=C/c3ccc(-c4cn5cc(Cl)ccc5[n+]4C)cc3)cc2)cn2cc(Cl)ccc21
- TGI [1]: > 100 µM
- TGI [2]: > 100 µM
- TGI [3]: > 100 µM
- TGI [4]: > 100 µM
- TGI [5]: > 100 µM
- TGI [6]: > 100 µM

Structure (SMILES): CCN(CC)CC1CCCCN1CC(=O)N1c2ccccc2NC(=O)CC1C (stereo not drawn)
- TGI [1]: > 100 µM
- TGI [3]: > 100 µM
- TGI [4]: > 100 µM
- TGI [5]: > 100 µM
- TGI [6]: > 100 µM
- TGI [7]: > 100 µM

Structure (SMILES): Cc1nc(C)c(C(=O)NNC(N)=S)cc1C(=O)NNC(N)=S
- TGI [1]: > 100 µM
- TGI [3]: > 100 µM
- TGI [4]: > 100 µM
- TGI [5]: > 100 µM
- TGI [6]: > 100 µM
- TGI [8]: > 100 µM
- TGI [7]: > 100 µM

Structure (SMILES): Cn1c(=O)c(C(=O)Nc2nc(C34CC5CC(CC(C5)C3)C4)cs2)c(O)c2ccccc21
- TGI [1]: > 100 µM
- TGI [2]: > 100 µM
- TGI [3]: > 100 µM
- TGI [4]: > 100 µM
- TGI [5]: > 100 µM
- TGI [6]: > 100 µM
- TGI [7]: 65.9 µM

Structure (SMILES): CCCSc1ccc2[nH]c(N3C(=O)/C(=C/c4ccco4)N=C3c3ccccc3)cc2c1
- TGI [1]: > 50 µM
- TGI [2]: > 50 µM
- TGI [3]: > 50 µM
- TGI [4]: > 50 µM
- TGI [5]: > 50 µM
- TGI [8]: > 50 µM
- TGI [7]: > 50 µM

Structure (SMILES): CC(=O)OCCOCn1c2c(c(=S)[nH]c1=O)CCC2
- TGI [1]: > 100 µM
- TGI [2]: > 100 µM
- TGI [3]: > 100 µM
- TGI [4]: > 100 µM
- TGI [5]: > 100 µM
- TGI [6]: > 100 µM
- TGI [7]: > 100 µM

Structure (SMILES): O=CN1CCN(C(=O)c2ccc(Cl)cc2Cl)C1=S
- TGI [1]: > 100 µM
- TGI [3]: > 100 µM
- TGI [4]: > 100 µM
- TGI [5]: > 100 µM
- TGI [6]: > 100 µM
- TGI [8]: > 100 µM
- TGI [7]: 98.7 µM

Structure (SMILES): O=C(c1ccco1)N1CCCN(C(=O)c2ccco2)C1=S
- TGI [1]: > 100 µM
- TGI [3]: > 100 µM
- TGI [4]: > 100 µM
- TGI [5]: > 100 µM
- TGI [8]: > 100 µM

Structure (SMILES): C1CCC2(CC1)O[C@@H]1[C@@H](O2)[C@@H](O[C@H]2O[C@@H]3COC4(CCCCC4)O[C@H]3[C@@H]3OC4(CCCCC4)O[C@@H]23)O[C@@H]2COC3(CCCCC3)O[C@@H]12
- TGI [1]: > 100 µM
- TGI [3]: > 100 µM
- TGI [4]: > 100 µM
- TGI [5]: > 100 µM
- TGI [6]: > 100 µM
- TGI [8]: > 100 µM
- TGI [7]: > 100 µM

Structure (SMILES): Oc1ccc(-c2nc(-c3cccnc3)c(-c3ccc(Cl)cc3)[nH]2)cc1O
- TGI [1]: 27.2 µM
- TGI [2]: > 100 µM
- TGI [3]: 35.3 µM
- TGI [4]: 21.2 µM
- TGI [5]: 30.2 µM
- TGI [6]: 29.8 µM
- TGI [8]: 23.3 µM

Structure (SMILES): Cc1cnc2sn(-c3ccc(Oc4ccccc4)cc3)c(=O)c2c1
- TGI [1]: 70.7 µM
- TGI [2]: 44 µM
- TGI [3]: 35.3 µM
- TGI [4]: 29.8 µM
- TGI [5]: > 100 µM
- TGI [6]: 39.3 µM
- TGI [8]: 30.7 µM

Structure (SMILES): COC(=O)C(Cc1c[nH]c2ccccc12)NC(=O)C(Cc1c[nH]c2ccccc12)NC(=O)C(Cc1c[nH]c2ccccc12)NC(=O)C(Cc1c[nH]c2ccccc12)NC(=O)C(Cc1c[nH]c2ccccc12)NC(=O)C(Cc1c[nH]c2ccccc12)NC(=O)OC(C)(C)C (stereo not drawn) (Boc-WWWWWW-OMe; configuration not given here)
- TGI [1]: > 100 µM
- TGI [2]: > 100 µM
- TGI [3]: > 100 µM
- TGI [4]: > 100 µM
- TGI [5]: > 100 µM
- TGI [8]: > 100 µM

Structure (SMILES): O=C(NCCC1([N+](=O)[O-])CCN(C(=O)c2ccccc2)CC1)c1ccccc1
- TGI [1]: > 100 µM
- TGI [2]: > 100 µM
- TGI [3]: > 100 µM
- TGI [4]: > 100 µM
- TGI [5]: > 100 µM
- TGI [6]: > 100 µM
- TGI [8]: > 100 µM

Structure (SMILES): BrCCCCCOc1ccc(-c2c3ccccc3c(-c3ccc(OCCCCCBr)cc3)c3ccccc23)cc1
- TGI [1]: > 100 µM
- TGI [2]: > 100 µM
- TGI [3]: > 100 µM
- TGI [4]: > 100 µM
- TGI [5]: > 100 µM
- TGI [6]: > 100 µM
- TGI [8]: > 100 µM

Structure (SMILES): CCOC(=O)c1cc(-c2cc(OC)c(OC)c([N+](=O)[O-])c2)c([N+](=O)[O-])n1C
- TGI [2]: > 10 µM
- TGI [3]: > 10 µM
- TGI [5]: > 10 µM
- TGI [6]: > 10 µM
- TGI [8]: > 10 µM
- TGI [7]: > 10 µM

Structure (SMILES): CC(=O)N=C1N(/C=C2\C(=O)Oc3ccccc3C2=O)C(=O)/C(=C/c2ccc(OC(C)=O)cc2)N1C
- TGI [1]: > 100 µM
- TGI [2]: > 100 µM
- TGI [3]: > 100 µM
- TGI [4]: > 100 µM
- TGI [5]: > 100 µM
- TGI [6]: > 100 µM
- TGI [8]: > 100 µM

Structure (SMILES): COC(=O)C1Cc2c(OC)ccc(OC)c2CC(C(=O)OC)C1=O (stereo not drawn)
- TGI [1]: > 100 µM
- TGI [3]: > 100 µM
- TGI [4]: > 100 µM
- TGI [5]: > 100 µM
- TGI [6]: > 100 µM
- TGI [8]: > 100 µM
- TGI [7]: > 100 µM

Structure (SMILES): COc1cc(C2c3cc4c(cc3[C@@H](Nc3ccccc3)C3COC[C@H]23)OCO4)cc(OC)c1O (stereo partly drawn)
- TGI [1]: > 100 µM
- TGI [2]: 16.5 µM
- TGI [3]: 9.83 µM
- TGI [4]: > 100 µM
- TGI [5]: > 100 µM
- TGI [6]: 3.36 µM

Structure (SMILES): [N-]=[N+]=C1N=CN=C1c1ncn[nH]1
- TGI [1]: > 100 µM
- TGI [4]: > 100 µM
- TGI [5]: > 100 µM
- TGI [6]: > 100 µM
- TGI [8]: 56.3 µM
- TGI [7]: 45 µM

Structure (SMILES): CCCCCCCCOC1C(O)C(O)C(O)C(O)C12CO2 (stereo not drawn)
- TGI [1]: > 100 µM
- TGI [2]: > 100 µM
- TGI [4]: > 100 µM
- TGI [5]: > 100 µM
- TGI [6]: > 100 µM
- TGI [8]: > 100 µM

Structure (SMILES): Cc1ccsc1/C=N/Nc1nc2ccccc2s1
- TGI [1]: 94.9 µM
- TGI [3]: > 100 µM
- TGI [4]: 50.1 µM
- TGI [5]: > 100 µM
- TGI [6]: 23.8 µM
- TGI [8]: > 100 µM
- TGI [7]: 49.5 µM
